System: patients with advanced solid tumors harboring FGFR1–3 gene alterations
Assay: Phase I dose-escalation: safety/tolerability
Type: in vivo, human

Substance: Debio 1347
- TEAE: Back pain (150 mg (n=3), all grades): 1 (33) Number (%) of patients
- TEAE: Blurred vision (150 mg (n=3), all grades): 0 Number (%) of patients
- TEAE: Constipation (150 mg (n=3), all grades): 1 (33) Number (%) of patients
- TEAE: Creatinine increased (in blood) (150 mg (n=3), all grades): 0 Number (%) of patients
- TEAE: Decreased appetite (150 mg (n=3), all grades): 1 (33) Number (%) of patients
- TEAE: Diarrhea (150 mg (n=3), all grades): 1 (33) Number (%) of patients
- TEAE: Dry eye (150 mg (n=3), all grades): 1 (33) Number (%) of patients
- TEAE: Dry mouth (150 mg (n=3), all grades): 1 (33) Number (%) of patients
- TEAE: Dry skin (150 mg (n=3), all grades): 1 (33) Number (%) of patients
- TEAE: Dysgeusia (150 mg (n=3), all grades): 2 (67) Number (%) of patients
- TEAE: Dyspnea (150 mg (n=3), all grades): 1 (33) Number (%) of patients
- TEAE: Edema peripheral (150 mg (n=3), all grades): 1 (33) Number (%) of patients
- TEAE: Fatigue (150 mg (n=3), all grades): 0 Number (%) of patients
- TEAE: Hyperphosphatemia (150 mg (n=3), all grades): 3 (100) Number (%) of patients
- TEAE: Hypertension (150 mg (n=3), all grades): 0 Number (%) of patients
- TEAE: Hypokalemia (150 mg (n=3), all grades): 0 Number (%) of patients
- TEAE: Hypomagnesemia (150 mg (n=3), all grades): 0 Number (%) of patients
- TEAE: Mucosal inflammation (150 mg (n=3), all grades): 1 (33) Number (%) of patients
- TEAE: Myalgia (150 mg (n=3), all grades): 0 Number (%) of patients
- TEAE: Nail changes (150 mg (n=3), all grades): 3 (100) Number (%) of patients
- TEAE: Nausea (150 mg (n=3), all grades): 2 (67) Number (%) of patients
- TEAE: Stomatitis (150 mg (n=3), all grades): 1 (33) Number (%) of patients
- TEAE: Vomiting (150 mg (n=3), all grades): 1 (33) Number (%) of patients
- Patients requiring dose reduction (60 and 80 mg): 20%
- Any TEAE (all doses (n=58), all grades): 58 (100%) Number (%) of patients
- Any TEAE leading to discontinuation (all doses (n=58), all grades): 7 (12.1) Number (%) of patients
- Any TEAE leading to dose reduction (all doses (n=58), all grades): 13 (22.4) Number (%) of patients
- Any TEAE leading to treatment interruption (all doses (n=58), all grades): 26 (44.8) Number (%) of patients
- Serious TEAE (all doses (n=58), all grades): 20 (34.5) Number (%) of patients
- TEAE: ALT increased (all doses (n=58), all grades): 6 (10) Number (%) of patients
- TEAE: AST increased (all doses (n=58), all grades): 6 (10) Number (%) of patients
- TEAE: Abdominal pain (all doses (n=58), all grades): 12 (21) Number (%) of patients
- TEAE: Alopecia (all doses (n=58), all grades): 11 (19) Number (%) of patients
- TEAE: Anemia (all doses (n=58), all grades): 12 (21) Number (%) of patients
- TEAE: Back pain (all doses (n=58), all grades): 9 (16) Number (%) of patients
- TEAE: Blurred vision (all doses (n=58), all grades): 6 (10) Number (%) of patients
- TEAE: Constipation (all doses (n=58), all grades): 19 (33) Number (%) of patients
- TEAE: Creatinine increased (in blood) (all doses (n=58), all grades): 8 (14) Number (%) of patients
- TEAE: Decreased appetite (all doses (n=58), all grades): 18 (31) Number (%) of patients
- TEAE: Diarrhea (all doses (n=58), all grades): 24 (41) Number (%) of patients
- TEAE: Dry eye (all doses (n=58), all grades): 8 (14) Number (%) of patients
- TEAE: Dry mouth (all doses (n=58), all grades): 15 (26) Number (%) of patients
- TEAE: Dry skin (all doses (n=58), all grades): 10 (17) Number (%) of patients
- TEAE: Dysgeusia (all doses (n=58), all grades): 10 (17) Number (%) of patients
- TEAE: Dyspnea (all doses (n=58), all grades): 12 (21) Number (%) of patients
- TEAE: Edema peripheral (all doses (n=58), all grades): 8 (14) Number (%) of patients
- TEAE: Fatigue (all doses (n=58), all grades): 22 (38) Number (%) of patients
- TEAE: Hyperphosphatemia (all doses (n=58), all grades): 44 (76) Number (%) of patients
- TEAE: Hypertension (all doses (n=58), all grades): 7 (12) Number (%) of patients
- TEAE: Hypokalemia (all doses (n=58), all grades): 8 (14) Number (%) of patients
- TEAE: Hypomagnesemia (all doses (n=58), all grades): 7 (12) Number (%) of patients
- TEAE: Mucosal inflammation (all doses (n=58), all grades): 8 (14) Number (%) of patients
- TEAE: Myalgia (all doses (n=58), all grades): 12 (21) Number (%) of patients
- TEAE: Nail changes (all doses (n=58), all grades): 17 (29) Number (%) of patients
- TEAE: Nausea (all doses (n=58), all grades): 23 (40) Number (%) of patients
- TEAE: Stomatitis (all doses (n=58), all grades): 12 (21) Number (%) of patients
- TEAE: Vomiting (all doses (n=58), all grades): 11 (19) Number (%) of patients
- Any TEAE (all doses (n=58), grade ≥3): 37 (64%) Number (%) of patients
- TEAE: ALT increased (all doses (n=58), grade ≥3): 2 (3) Number (%) of patients
- TEAE: AST increased (all doses (n=58), grade ≥3): 1 (2) Number (%) of patients
- TEAE: Abdominal pain (all doses (n=58), grade ≥3): 1 (2) Number (%) of patients
- TEAE: Alopecia (all doses (n=58), grade ≥3): 0 Number (%) of patients
- TEAE: Anemia (all doses (n=58), grade ≥3): 7 (12) Number (%) of patients
- TEAE: Back pain (all doses (n=58), grade ≥3): 1 (2) Number (%) of patients
- TEAE: Blurred vision (all doses (n=58), grade ≥3): 0 Number (%) of patients
- TEAE: Constipation (all doses (n=58), grade ≥3): 1 (2) Number (%) of patients
- TEAE: Creatinine increased (in blood) (all doses (n=58), grade ≥3): 0 Number (%) of patients
- TEAE: Decreased appetite (all doses (n=58), grade ≥3): 1 (2) Number (%) of patients
- TEAE: Diarrhea (all doses (n=58), grade ≥3): 2 (3) Number (%) of patients
- TEAE: Dry eye (all doses (n=58), grade ≥3): 0 Number (%) of patients
- TEAE: Dry mouth (all doses (n=58), grade ≥3): 0 Number (%) of patients
- TEAE: Dry skin (all doses (n=58), grade ≥3): 0 Number (%) of patients
- TEAE: Dysgeusia (all doses (n=58), grade ≥3): 0 Number (%) of patients
- TEAE: Dyspnea (all doses (n=58), grade ≥3): 3 (5) Number (%) of patients
- TEAE: Edema peripheral (all doses (n=58), grade ≥3): 0 Number (%) of patients
- TEAE: Fatigue (all doses (n=58), grade ≥3): 0 Number (%) of patients
- TEAE: Hyperphosphatemia (all doses (n=58), grade ≥3): 12 (21) Number (%) of patients
- TEAE: Hypertension (all doses (n=58), grade ≥3): 0 Number (%) of patients
- TEAE: Hypokalemia (all doses (n=58), grade ≥3): 1 (2) Number (%) of patients
- TEAE: Hypomagnesemia (all doses (n=58), grade ≥3): 0 Number (%) of patients
- TEAE: Mucosal inflammation (all doses (n=58), grade ≥3): 1 (2) Number (%) of patients
- TEAE: Myalgia (all doses (n=58), grade ≥3): 0 Number (%) of patients
- TEAE: Nail changes (all doses (n=58), grade ≥3): 0 Number (%) of patients
- TEAE: Nausea (all doses (n=58), grade ≥3): 0 Number (%) of patients
- TEAE: Stomatitis (all doses (n=58), grade ≥3): 2 (3) Number (%) of patients
- TEAE: Vomiting (all doses (n=58), grade ≥3): 0 Number (%) of patients
- Patients in whom adverse events required dose modifications (all doses, n=58): 52%
- Patients requiring dose modifications due to AEs (all doses, n=58): 30 (52%) patients (%)
- Patients with dose modifications due to asymptomatic hyperphosphatemia (all doses, n=58): 22%
- Patients reporting blurred vision (at 30–150 mg, mainly grade 1): 6 patients
- Recommended phase 2 dose (RP2D) (dose reduction to 60 mg/day in case of intolerable toxicity): 80 mg/daily
- Maximum tolerated dose (doses up to 150 mg/day once daily, 3+3+3 design): not formally reached
- Patients with DLTs (first 4 weeks, at three dose levels, 58 treated at 10 to 150 mg/day): Five
- Number of DLTs (first 4 weeks, dry mouth/eyes, hyperamylasemia, hypercalcemia, hyperbilirubinemia, hyperphosphatemia, stomatitis): 6 DLTs
- SAEs deemed possibly study drug related (DLTs) (hyperamylasemia (80 mg), stomatitis (110 mg)): two
- Maximum severity of dermatological toxicity / nail changes (in vivo): ≤ 2 grade
- Patients with QTc prolongations of grade 1 or 2 (in vivo): Three
- Patients with nail changes requiring dose adjustment (in vivo): 3 patients
- Drug-related deaths (n=58): no death was considered drug-related
- Number of SAEs (n=58): 39 SAEs
- Patients experiencing SAEs (n=58): 20 patients
- Patients who died from disease progression (n=58): 21 patients
- Patients with highest TEAE severity grade 1 (n=58): 4 (7%) patients (%)
- Patients with highest TEAE severity grade 2 (n=58): 17 (29%) patients (%)
- Patients with highest TEAE severity grade 3 (n=58): 28 (48%) patients (%)
- Patients with highest TEAE severity grade 4 (n=58): 2 (3%) patients (%)
- Patients with highest TEAE severity grade 5 (n=58): 7 (12%) patients (%)
- Dose up to which tolerability was acceptable (oral once daily): up to 80 mg/day
- Lowest dose at which serum phosphate increases occurred (typically between 1st and 3rd week of dosing): 20 mg
- Dose reduction required (up to 40 mg): no dose reduction was required

From publication PMC9014845 (Clinical cancer research : an official journal of the …, 2019)
